What is called ED50 is the midpoint of the dose-response relation. For orientation: inhibition means how much of the control response was suppressed. In general, Ki refers to the equilibrium dissociation constant of an inhibitor or competing ligand from its target.

Activity calls are given as the source filed them. No cut-off for these calls is given here.

Results on 33 compounds are retold here after ChEMBL document CHEMBL1130926, “Novel H3 receptor antagonists. Sulfonamide homologs of histamine” (Bioorg Med Chem Lett, 1998).

In test [1] the test system is Cavia porcellus. Kind of test: Compound was evaluated in vivo for its H3 receptor antagonist activity in the CNS hypertension model; NA: Not active. Type of test: functional, organism-based.
Test [2] deals with Histamine H1 receptor (Cavia porcellus, UniProt P31389). Kind of test: Evaluated for the percent binding affinity against H1 receptor by an H1 histamine-mediated bronchospasm. Details: concentration or dose not given beside the values.
Chain of Histamine H1 receptor (P31389 whole entry): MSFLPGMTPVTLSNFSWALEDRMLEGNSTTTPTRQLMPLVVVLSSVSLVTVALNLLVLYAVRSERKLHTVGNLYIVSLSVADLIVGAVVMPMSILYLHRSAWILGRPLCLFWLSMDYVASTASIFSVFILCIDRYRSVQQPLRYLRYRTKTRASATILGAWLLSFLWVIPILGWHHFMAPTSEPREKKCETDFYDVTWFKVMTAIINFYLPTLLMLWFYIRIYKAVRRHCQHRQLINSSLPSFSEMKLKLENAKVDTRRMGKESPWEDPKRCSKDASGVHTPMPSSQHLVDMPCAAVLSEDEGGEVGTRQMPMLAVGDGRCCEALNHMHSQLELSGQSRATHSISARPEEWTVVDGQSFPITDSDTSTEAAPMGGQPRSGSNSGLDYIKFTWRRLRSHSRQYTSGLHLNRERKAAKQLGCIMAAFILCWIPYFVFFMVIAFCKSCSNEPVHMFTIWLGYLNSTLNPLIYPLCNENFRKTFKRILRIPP
Test [3] deals with T1, Histamine H3 receptor (Cavia porcellus, UniProt Q9JI35). Kind of test: Inhibition of [3H]Nalpha-methylhistamine binding to H3 receptor in guinea-pig brain membranes. Type of test: cell membranes, Membrane.
T1 sequence (Q9JI35 whole entry): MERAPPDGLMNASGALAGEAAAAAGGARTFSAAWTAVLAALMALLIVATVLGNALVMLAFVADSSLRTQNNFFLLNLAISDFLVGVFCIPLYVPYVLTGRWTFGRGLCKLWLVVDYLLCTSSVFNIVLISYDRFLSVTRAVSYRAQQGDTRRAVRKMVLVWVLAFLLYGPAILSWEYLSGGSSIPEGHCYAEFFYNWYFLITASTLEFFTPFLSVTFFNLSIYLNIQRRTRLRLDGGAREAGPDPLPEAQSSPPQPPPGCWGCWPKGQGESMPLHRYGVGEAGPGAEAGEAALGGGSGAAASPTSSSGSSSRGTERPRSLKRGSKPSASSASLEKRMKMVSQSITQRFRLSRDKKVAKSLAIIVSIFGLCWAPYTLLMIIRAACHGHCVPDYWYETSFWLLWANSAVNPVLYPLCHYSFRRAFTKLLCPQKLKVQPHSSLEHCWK
In test [4] the target is Histamine H3 receptor (Cavia porcellus) (UniProt Q9JI35). Kind of test: Evaluated in vivo for its H3 receptor antagonist activity in the CNS hypertension model. In kind it is functional, organism-based.
Chain of Histamine H3 receptor (Cavia porcellus) (Q9JI35 whole entry): as above
In test [5] the target is T1, Histamine H3 receptor. Kind of test: H3 -antagonist potency determined in electrically stimulated guinea-pig ileum. In kind it is functional, tissue-based. The conditions noted are these: read-out: pA2 (converted).
For test [6], the target named is Histamine H3 receptor (Cavia porcellus) (UniProt Q9JI35). Kind of test: Evaluated in vivo for its H3 receptor antagonist activity in the CNS hypertension model at 3 mg/kg dose. On the set-up: dose 3 mg/kg. In kind it is functional, organism-based.

Consider `O=S(=O)(NCCCCc1c[nH]cn1)c1ccccc1`, for which, in test [1], the ED50 result was “inactive”. The compound also displayed an inhibition in test [2] of 5%.

For `CC(C)(C)c1ccc(S(=O)(=O)NCCCCc2c[nH]cn2)cc1`, affinity in test [3] was put at a Ki of 16.5 nM. Besides, the 50% effect level in test [4] (ED50) was put at a dose of 3 mg/kg. Besides, in test [2], the inhibition turned out to be 32%. The Kb in test [5] was 15.8 nM.

As for `O=S(=O)(NCCCCCc1cnc[nH]1)c1ccc(Cl)cc1`, in test [3], the affinity corresponds to a Ki of 11.5 nM. Moreover, the Kb in test [5] was 100 nM.

In test [4], `O=S(=O)(NCCCCc1c[nH]cn1)c1ccc(Cl)cc1` had an ED50 of 2.2 mg/kg. The inhibition in test [2] was found to be 48%.

In test [3], `Nc1ccc(S(=O)(=O)NCCCCc2c[nH]cn2)cc1` had a Ki of 99 nM.

In the case of `O=S(=O)(NCCCCc1c[nH]cn1)c1cccc(Cl)c1`, the inhibition constant Ki in test [3] came out at 8.5 nM. Moreover, the Kb in test [5] was 50.1 nM. For the same compound, the inhibition in test [6] is 8%.

On to `O=S(=O)(NCCCCCc1c[nH]cn1)c1ccccc1`, for which, in test [3], the affinity, expressed as Ki, was 24.5 nM. In test [2], this compound showed an inhibition of 19%. Also, in test [5], the Kb is 63.1 nM.

In test [3], `O=S(=O)(NCCCCc1c[nH]cn1)c1ccc(OC(F)(F)F)cc1` had a Ki of 7 nM. Besides, in test [1], the ED50 entry was “inactive”. Further, the Kb in test [5] is 10 nM.

For the compound `O=S(=O)(c1ccc(Cl)cc1)N(CCCCc1c[nH]cn1)CCCCn1ccnc1`, the Ki in test [3] turned out to be 2.5 nM. Moreover, the Kb in test [5] was 7.94 nM.

In test [6], `Cc1ccc(S(=O)(=O)NCCCCc2c[nH]cn2)cc1` returned an inhibition of 16%.

For `CN(CCCCc1c[nH]cn1)S(=O)(=O)c1ccc(Cl)cc1`, in test [3], the inhibitory constant (Ki) came out at 4 nM. Also, the inhibition is 32% in test [2] and 43% in test [6]. Besides, in test [5], the Kb is 5.01 nM.

`O=[N+]([O-])c1ccc(S(=O)(=O)NCCCCc2c[nH]cn2)cc1`: the ED50 result in test [1] is “inactive”. The compound further returned an inhibition in test [2] of 24%.

Turning to `O=S(=O)(NCCCCc1cnc[nH]1)c1cccs1`, the Ki in test [3] is 45 nM.

As for `O=S(=O)(Cc1ccccc1)NCCCCc1c[nH]cn1`, the Ki in test [3] worked out at 6 nM. For the same compound, the results for the inhibition in test [2] and in test [6] were 3% and 17%, respectively. Also, the Kb in test [5] is 31.6 nM.

`Cc1ccc(S(=O)(=O)NCCCCc2cnc[nH]2)cc1` registered a Ki in test [3] of 17 nM. The Kb in test [5] is 25.1 nM.

In test [3], `Cn1cc[n+](S(=O)(=O)NCCCCc2c[nH]cn2)c1` registered a Ki of 43 nM.

As for `O=[N+]([O-])c1ccc(S(=O)(=O)NCCCc2c[nH]cn2)cc1`, the Ki in test [3] amounted to 93 nM. Also, the inhibition in test [2] amounted to 36%.

Take `O=S(=O)(NCCCCCc1c[nH]cn1)c1ccc(OC(F)(F)F)cc1`: the Ki in test [3] amounted to 24.3 nM. In addition, the inhibition in test [2] is recorded as 1%. In addition, the Kb in test [5] was 10 nM.

Compound `O=S(=O)(NCCCc1c[nH]cn1)c1ccc(Cl)cc1` registered a Ki in test [3] of 380 nM. The inhibition in test [2] stood at 21%.

Compound `O=[N+]([O-])c1ccc(S(=O)(=O)NCCCCCc2c[nH]cn2)cc1` returned a Ki in test [3] of 5.5 nM. The same compound came in with an ED50 in test [4] of 2.7 mg/kg. In test [2], this compound yielded an inhibition of 25%. In test [5], the Kb was 7.94 nM.

`O=[N+]([O-])c1ccccc1CS(=O)(=O)NCCCCc1cnc[nH]1`: the Ki in test [3] stood at 42 nM.

`CC(C)S(=O)(=O)NCCCCc1cnc[nH]1` yielded a Ki in test [3] of 22 nM. The Kb in test [5] was 63.1 nM.

Regarding `O=S(=O)(NCCCc1cnc[nH]1)c1cccs1`, in test [3], the inhibitory constant (Ki) came to 550 nM.

The compound `O=S(=O)(c1ccc(Cl)cc1)N(CCCCc1c[nH]cn1)Cc1ccc(Cl)cc1` registered a Ki in test [3] of 24 nM. In addition, the ED50 in test [4] is 3 mg/kg. Besides, in test [2], the inhibition came to 45%. Further, in test [5], the Kb was 15.8 nM.

Take `O=S(=O)(NCCCCc1c[nH]cn1)c1ccc(F)cc1`: affinity in test [3] was put at a Ki of 20.5 nM. The compound also gave an inhibition in test [2] of 19%. Further, the Kb in test [5] is 158 nM.

Consider `O=[N+]([O-])c1ccc(S(=O)(=O)NCCCCc2cnc[nH]2)cc1`, for which affinity in test [3] was put at a Ki of 16.5 nM. For the same compound, in test [5], the Kb is 20 nM.

In test [4], `O=S(=O)(NCCCCCc1c[nH]cn1)c1ccc(Cl)cc1` came in with a 50% effective dose (ED50) of 3 mg/kg. In addition, in test [2], the inhibition worked out at 37%.

In the case of `O=S(=O)(NCCCCc1cnc[nH]1)c1ccc(Cl)cc1`, in test [3], the affinity corresponds to a Ki of 9 nM. For the same compound, the Kb in test [5] was 12.6 nM.

In the case of `CC(C)(C)c1ccc(S(=O)(=O)NCCCc2c[nH]cn2)cc1`, in test [3], the inhibitory constant (Ki) stood at 45.5 nM. In addition, the inhibition in test [2] is 30%.

In test [3], `O=S(=O)(NCCCCc1c[nH]cn1)c1ccc(C(F)(F)F)cc1` had a Ki of 10 nM. This compound returned an ED50 in test [4] of 3 mg/kg. The compound also returned an inhibition in test [2] of 1%. For the same compound, the Kb in test [5] was 3.98 nM.

Compound `COc1ccc(S(=O)(=O)NCCCCc2cnc[nH]2)cc1` displayed a Ki in test [3] of 51 nM.

Take `O=S(=O)(NCCCCc1cnc[nH]1)c1ccccc1`: in test [3], the affinity corresponds to a Ki of 10.5 nM. Moreover, the Kb in test [5] is 31.6 nM.

`CC(C)(C)c1ccc(S(=O)(=O)NCCCCCc2c[nH]cn2)cc1`: the affinity in test [3] corresponds to a Ki of 5 nM. For the same compound, the inhibition stood at 14% in test [2] and 40% in test [6]. Further, the Kb in test [5] was 10 nM.
